{"source": "PubChem BioAssay (NCI)", "experiment_in_all_cases": "NCI tumour cell line growth inhibition, 384-well format", "key": {"OVCAR-4 ovarian": {"system": "OVCAR-4 ovarian"}, "SF-268 CNS": {"system": "SF-268 CNS"}, "COLO 205 colon": {"system": "COLO 205 colon"}, "TK-10 renal": {"system": "TK-10 renal"}, "NCI/ADR-RES ovarian": {"system": "NCI/ADR-RES ovarian"}, "HCT-15 colon": {"system": "HCT-15 colon"}, "SNB-75 CNS": {"system": "SNB-75 CNS"}, "DU-145 prostate": {"system": "DU-145 prostate"}, "EKVX NSCLC": {"system": "EKVX NSCLC"}, "HT29 colon": {"system": "HT29 colon"}, "MDA-MB-435 melanoma": {"system": "MDA-MB-435 melanoma"}, "HOP-92 NSCLC": {"system": "HOP-92 NSCLC"}, "IGROV1 ovarian": {"system": "IGROV1 ovarian"}, "A498 renal": {"system": "A498 renal"}, "HCC-2998 colon": {"system": "HCC-2998 colon"}, "HL-60(TB) leukemia": {"system": "HL-60(TB) leukemia"}, "SK-MEL-28 melanoma": {"system": "SK-MEL-28 melanoma"}, "A549 NSCLC": {"system": "A549 NSCLC"}, "NCI-H23 lung": {"system": "NCI-H23 lung"}, "MALME-3M melanoma": {"system": "MALME-3M melanoma"}, "NCI-H460 NSCLC": {"system": "NCI-H460 NSCLC"}, "SW-620 colon": {"system": "SW-620 colon"}, "T-47D breast": {"system": "T-47D breast"}, "PC-3 prostate": {"system": "PC-3 prostate"}, "OVCAR-3 ovarian": {"system": "OVCAR-3 ovarian"}, "UACC-62 melanoma": {"system": "UACC-62 melanoma"}, "SR leukemia": {"system": "SR leukemia"}, "ACHN renal": {"system": "ACHN renal"}}, "note": "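GI50 = concentration required for 50% inhibition of growth. TGI denotes the concentration required for complete inhibition of growth.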"}
{"smiles": "CNC(=O)c1ccc2cc(C3(O)CCn4cncc43)ccc2c1", "note": "(stereo unspecified)", "values": [{"measurement": "GI50", "setting": "OVCAR-4 ovarian", "value": "> 100", "unit": "µM"}, {"measurement": "TGI", "setting": "OVCAR-4 ovarian", "value": "> 100", "unit": "µM"}, {"measurement": "GI50", "setting": "SF-268 CNS", "value": "> 100", "unit": "µM"}, {"measurement": "TGI", "setting": "SF-268 CNS", "value": "> 100", "unit": "µM"}, {"measurement": "GI50", "setting": "COLO 205 colon", "value": "> 100", "unit": "µM"}, {"measurement": "TGI", "setting": "COLO 205 colon", "value": "> 100", "unit": "µM"}, {"measurement": "GI50", "setting": "TK-10 renal", "value": "> 100", "unit": "µM"}, {"measurement": "TGI", "setting": "TK-10 renal", "value": "> 100", "unit": "µM"}, {"measurement": "GI50", "setting": "NCI/ADR-RES ovarian", "value": "> 100", "unit": "µM"}, {"measurement": "TGI", "setting": "NCI/ADR-RES ovarian", "value": "> 100", "unit": "µM"}, {"measurement": "GI50", "setting": "HCT-15 colon", "value": "> 100", "unit": "µM"}, {"measurement": "TGI", "setting": "HCT-15 colon", "value": "> 100", "unit": "µM"}, {"measurement": "GI50", "setting": "SNB-75 CNS", "value": "> 100", "unit": "µM"}, {"measurement": "TGI", "setting": "SNB-75 CNS", "value": "> 100", "unit": "µM"}, {"measurement": "GI50", "setting": "DU-145 prostate", "value": "> 100", "unit": "µM"}, {"measurement": "TGI", "setting": "DU-145 prostate", "value": "> 100", "unit": "µM"}, {"measurement": "GI50", "setting": "EKVX NSCLC", "value": "> 100", "unit": "µM"}, {"measurement": "TGI", "setting": "EKVX NSCLC", "value": "> 100", "unit": "µM"}, {"measurement": "GI50", "setting": "HT29 colon", "value": "> 100", "unit": "µM"}, {"measurement": "TGI", "setting": "HT29 colon", "value": "> 100", "unit": "µM"}, {"measurement": "GI50", "setting": "MDA-MB-435 melanoma", "value": "> 100", "unit": "µM"}, {"measurement": "TGI", "setting": "MDA-MB-435 melanoma", "value": "> 100", "unit": "µM"}, {"measurement": "GI50", "setting": "HOP-92 NSCLC", "value": "> 100", "unit": "µM"}, {"measurement": "TGI", "setting": "HOP-92 NSCLC", "value": "> 100", "unit": "µM"}, {"measurement": "GI50", "setting": "IGROV1 ovarian", "value": "> 100", "unit": "µM"}, {"measurement": "TGI", "setting": "IGROV1 ovarian", "value": "> 100", "unit": "µM"}, {"measurement": "GI50", "setting": "A498 renal", "value": "> 100", "unit": "µM"}, {"measurement": "TGI", "setting": "A498 renal", "value": "> 100", "unit": "µM"}, {"measurement": "GI50", "setting": "HCC-2998 colon", "value": "> 100", "unit": "µM"}, {"measurement": "TGI", "setting": "HCC-2998 colon", "value": "> 100", "unit": "µM"}, {"measurement": "GI50", "setting": "HL-60(TB) leukemia", "value": "> 100", "unit": "µM"}, {"measurement": "TGI", "setting": "HL-60(TB) leukemia", "value": "> 100", "unit": "µM"}, {"measurement": "GI50", "setting": "SK-MEL-28 melanoma", "value": "> 100", "unit": "µM"}, {"measurement": "TGI", "setting": "SK-MEL-28 melanoma", "value": "> 100", "unit": "µM"}, {"measurement": "GI50", "setting": "A549 NSCLC", "value": "> 100", "unit": "µM"}, {"measurement": "TGI", "setting": "A549 NSCLC", "value": "> 100", "unit": "µM"}, {"measurement": "GI50", "setting": "NCI-H23 lung", "value": "> 100", "unit": "µM"}, {"measurement": "TGI", "setting": "NCI-H23 lung", "value": "> 100", "unit": "µM"}, {"measurement": "GI50", "setting": "MALME-3M melanoma", "value": "> 100", "unit": "µM"}, {"measurement": "TGI", "setting": "MALME-3M melanoma", "value": "> 100", "unit": "µM"}, {"measurement": "GI50", "setting": "NCI-H460 NSCLC", "value": "> 100", "unit": "µM"}, {"measurement": "TGI", "setting": "NCI-H460 NSCLC", "value": "> 100", "unit": "µM"}, {"measurement": "GI50", "setting": "SW-620 colon", "value": "> 100", "unit": "µM"}, {"measurement": "TGI", "setting": "SW-620 colon", "value": "> 100", "unit": "µM"}, {"measurement": "GI50", "setting": "T-47D breast", "value": "> 100", "unit": "µM"}, {"measurement": "TGI", "setting": "T-47D breast", "value": "> 100", "unit": "µM"}, {"measurement": "GI50", "setting": "PC-3 prostate", "value": "> 100", "unit": "µM"}, {"measurement": "TGI", "setting": "PC-3 prostate", "value": "> 100", "unit": "µM"}, {"measurement": "GI50", "setting": "OVCAR-3 ovarian", "value": "> 100", "unit": "µM"}, {"measurement": "TGI", "setting": "OVCAR-3 ovarian", "value": "> 100", "unit": "µM"}, {"measurement": "GI50", "setting": "UACC-62 melanoma", "value": "> 100", "unit": "µM"}, {"measurement": "TGI", "setting": "UACC-62 melanoma", "value": "> 100", "unit": "µM"}, {"measurement": "GI50", "setting": "SR leukemia", "value": "> 100", "unit": "µM"}, {"measurement": "TGI", "setting": "SR leukemia", "value": "> 100", "unit": "µM"}, {"measurement": "GI50", "setting": "ACHN renal", "value": "> 100", "unit": "µM"}, {"measurement": "TGI", "setting": "ACHN renal", "value": "> 100", "unit": "µM"}]}
